Test results published in publication PMC9487510, “A Novel Oral GyrB/ParE Dual Binding Inhibitor Effective against Multidrug-Resistant Neisseria gonorrhoeae and Other High-Threat Pathogens” (Antimicrobial Agents and Chemotherapy, 2022).
Values after ≈ are worked out from the molar mass of the structure shown. Read-outs that look alike come from different tables or passages of the source.

System: N. gonorrhoeae clinical isolates
Assay: MIC, agar dilution (CLSI)
Assay type: cell-based, Neisseria gonorrhoeae
Settings: Neisseria gonorrhoeae

With `CC[C@H]1OC(=O)[C@H](C)[C@@H](O[C@H]2C[C@@](C)(OC)[C@@H](O)[C@H](C)O2)[C@H](C)[C@@H](O[C@@H]2O[C@H](C)C[C@H](N(C)C)[C@H]2O)[C@](C)(O)C[C@@H](C)CN(C)[C@H](C)[C@@H](O)[C@]1(C)O` [Azi, azithromycin] the MIC50 was 0.125 µg/mL (≈ 0.167 µM), the MIC (strain CDC1 (GCREF2012 016), read-out: MIC) was 0.25 µg/mL (≈ 0.334 µM) and the MIC (strain CDC2 (GCREF2012 045), read-out: MIC) was 0.5 µg/mL (≈ 0.668 µM). It also gave an MIC (strain CDC3 (GCREF2013 013)) of 0.125 µg/mL (≈ 0.167 µM), an MIC (strain CDC4 (GCREF2013 030)) of 0.125 µg/mL (≈ 0.167 µM) and an MIC (strain CDC5 (GCREF2012 001), read-out: MIC) of 0.5 µg/mL (≈ 0.668 µM). For the same molecule, the MIC (strain CDC6 (GCREF2012 002), read-out: MIC) was 0.5 µg/mL (≈ 0.668 µM), the MIC (strain CDC8 (GCREF2012 004)) was 0.125 µg/mL (≈ 0.167 µM) and the MIC (strain CDC9 (GCREF2012 005)) was 0.125 µg/mL (≈ 0.167 µM). The MIC (strain CDC10 (GCREF2012 006), read-out: MIC) was 0.5 µg/mL (≈ 0.668 µM), the MIC (strain CDC11 (GCREF2012 007), read-out: MIC) was 0.25 µg/mL (≈ 0.334 µM) and the MIC (strain CDC12 (GCREF2012 008)) was 0.125 µg/mL (≈ 0.167 µM). For the same molecule, the MIC (strain CDC13 (GCREF2012 009)) was 0.125 µg/mL (≈ 0.167 µM), the MIC (strain CDC14 (GCREF2012 010)) was 0.125 µg/mL (≈ 0.167 µM) and the MIC (strain CDC15 (GCREF2012 011), read-out: MIC) was 4 µg/mL (≈ 5.34 µM). The MIC (strain CDC16 (GCREF2012 012), read-out: MIC) was 0.25 µg/mL (≈ 0.334 µM), the MIC (strain CDC18 (GCREF2012 014), read-out: MIC) was 0.5 µg/mL (≈ 0.668 µM) and the MIC (strain CDC19 (GCREF2012 015), read-out: MIC) was 8 µg/mL (≈ 10.7 µM). The MIC (strain CDC20 (GCREF2012 017), read-out: MIC) was > 16 µg/mL, the MIC (strain CDC21 (GCREF2012 018)) was 0.125 µg/mL (≈ 0.167 µM) and the MIC (strain CDC22 (GCREF2012 019), read-out: MIC) was 0.5 µg/mL (≈ 0.668 µM). It also gave an MIC (strain CDC23 (GCREF2012 020)) of 0.125 µg/mL (≈ 0.167 µM), an MIC (strain CDC24 (GCREF2012 021), read-out: MIC) of 0.25 µg/mL (≈ 0.334 µM) and an MIC (strain CDC25 (GCREF2012 022)) of 0.125 µg/mL (≈ 0.167 µM). For the same molecule, the MIC (strain CDC26 (GCREF2012 023), read-out: MIC) was 0.5 µg/mL (≈ 0.668 µM), the MIC (strain CDC27 (GCREF2012 024), read-out: MIC) was 0.25 µg/mL (≈ 0.334 µM) and the MIC (strain CDC28 (GCREF2012 025), read-out: MIC) was 0.25 µg/mL (≈ 0.334 µM). It also gave an MIC (strain CDC29 (GCREF2012 026), read-out: MIC) of 0.5 µg/mL (≈ 0.668 µM), an MIC (strain CDC30 (GCREF2012 027), read-out: MIC) of 0.25 µg/mL (≈ 0.334 µM) and an MIC (strain CDC31 (GCREF2012 028), read-out: MIC) of 0.5 µg/mL (≈ 0.668 µM). It also gave an MIC (strain CDC32 (GCREF2012 029)) of 0.125 µg/mL (≈ 0.167 µM), an MIC (strain CDC33 (GCREF2012 030)) of 0.125 µg/mL (≈ 0.167 µM) and an MIC (strain CDC34 (GCREF2012 031)) of 0.125 µg/mL (≈ 0.167 µM). The MIC (strain CDC35 (GCREF2012 032), read-out: MIC) was 0.25 µg/mL (≈ 0.334 µM), the MIC (strain CDC36 (GCREF2012 033), read-out: MIC) was 4 µg/mL (≈ 5.34 µM) and the MIC (strain CDC37 (GCREF2012 034), read-out: MIC) was 0.25 µg/mL (≈ 0.334 µM). It also gave an MIC (strain CDC38 (GCREF2012 035), read-out: MIC) of 0.25 µg/mL (≈ 0.334 µM), an MIC (strain CDC39 (GCREF2012 036), read-out: MIC) of 0.25 µg/mL (≈ 0.334 µM) and an MIC (strain CDC40 (GCREF2012 037), read-out: MIC) of 0.25 µg/mL (≈ 0.334 µM). The MIC (strain CDC41 (GCREF2012 038), read-out: MIC) was 0.25 µg/mL (≈ 0.334 µM), the MIC (strain CDC42 (GCREF2012 039), read-out: MIC) was 0.25 µg/mL (≈ 0.334 µM) and the MIC (strain CDC43 (GCREF2012 040), read-out: MIC) was 0.25 µg/mL (≈ 0.334 µM). For the same molecule, the MIC (strain CDC45 (GCREF2012 042), read-out: MIC) was 0.5 µg/mL (≈ 0.668 µM), the MIC (strain CDC46 (GCREF2012 043)) was 0.125 µg/mL (≈ 0.167 µM) and the MIC (strain CDC47 (GCREF2012 044), read-out: MIC) was 0.5 µg/mL (≈ 0.668 µM). The MIC (strain CDC48 (GCREF2012 046), read-out: MIC) was 0.25 µg/mL (≈ 0.334 µM), the MIC (strain CDC49 (GCREF2012 047), read-out: MIC) was 0.5 µg/mL (≈ 0.668 µM) and the MIC (strain CDC50 (GCREF2012 048), read-out: MIC) was 0.25 µg/mL (≈ 0.334 µM). The MIC (strain CDC51 (GCREF2012 049)) was 0.125 µg/mL (≈ 0.167 µM), the MIC (strain CDC52 (GCREF2012 050)) was 0.125 µg/mL (≈ 0.167 µM) and the MIC (strain CDC53 (GCREF2012 051)) was 0.125 µg/mL (≈ 0.167 µM). It also gave an MIC (strain CDC54 (GCREF2012 052), read-out: MIC) of 0.016 µg/mL (≈ 0.0214 µM), an MIC (strain CDC55 (GCREF2013 001)) of 0.125 µg/mL (≈ 0.167 µM) and an MIC (strain CDC56 (GCREF2013 002)) of 0.125 µg/mL (≈ 0.167 µM). The MIC (strain CDC57 (GCREF2013 003)) was 0.125 µg/mL (≈ 0.167 µM), the MIC (strain CDC58 (GCREF2013 004)) was 0.125 µg/mL (≈ 0.167 µM) and the MIC (strain CDC59 (GCREF2013 044)) was 0.125 µg/mL (≈ 0.167 µM). For the same molecule, the MIC (strain CDC60 (GCREF2013 005)) was 0.125 µg/mL (≈ 0.167 µM), the MIC (strain CDC61 (GCREF2013 006), read-out: MIC) was 0.25 µg/mL (≈ 0.334 µM) and the MIC (strain CDC62 (GCREF2013 007)) was 0.125 µg/mL (≈ 0.167 µM). It also gave an MIC (strain CDC63 (GCREF2013 008), read-out: MIC) of 0.016 µg/mL (≈ 0.0214 µM), an MIC (strain CDC64 (GCREF2013 009)) of 0.125 µg/mL (≈ 0.167 µM) and an MIC (strain CDC65 (GCREF2013 010)) of 0.125 µg/mL (≈ 0.167 µM). For the same molecule, the MIC (strain CDC66 (GCREF2013 011), read-out: MIC) was 4 µg/mL (≈ 5.34 µM), the MIC (strain CDC67 (GCREF2013 014)) was 0.125 µg/mL (≈ 0.167 µM) and the MIC (strain CDC68 (GCREF2013 016)) was 0.125 µg/mL (≈ 0.167 µM). It also gave an MIC (strain CDC69 (GCREF2013 017)) of 0.125 µg/mL (≈ 0.167 µM), an MIC (strain CDC70 (GCREF2013 018), read-out: MIC) of 4 µg/mL (≈ 5.34 µM) and an MIC (strain CDC71 (GCREF2013 019)) of 0.125 µg/mL (≈ 0.167 µM). It also gave an MIC (strain CDC72 (GCREF2013 020)) of 0.125 µg/mL (≈ 0.167 µM), an MIC (strain CDC73 (GCREF2013 021)) of 0.125 µg/mL (≈ 0.167 µM) and an MIC (strain CDC74 (GCREF2013 022)) of 0.125 µg/mL (≈ 0.167 µM). For the same molecule, the MIC (strain CDC75 (GCREF2013 023), read-out: MIC) was 0.5 µg/mL (≈ 0.668 µM), the MIC (strain CDC76 (GCREF2013 024)) was 0.125 µg/mL (≈ 0.167 µM) and the MIC (strain CDC77 (GCREF2013 025), read-out: MIC) was 4 µg/mL (≈ 5.34 µM). The MIC (strain CDC78 (GCREF2013 026), read-out: MIC) was 0.031 µg/mL (≈ 0.0414 µM), the MIC (strain CDC79 (GCREF2013 027)) was 0.125 µg/mL (≈ 0.167 µM) and the MIC (strain CDC80 (GCREF2013 028), read-out: MIC) was 8 µg/mL (≈ 10.7 µM). For the same molecule, the MIC (strain CDC81 (GCREF2013 029)) was 0.125 µg/mL (≈ 0.167 µM), the MIC (strain CDC82 (GCREF2013 031), read-out: MIC) was 2 µg/mL (≈ 2.67 µM) and the MIC (strain CDC83 (GCREF2013 032)) was 0.125 µg/mL (≈ 0.167 µM). For the same molecule, the MIC (strain CDC84 (GCREF2013 033)) was 0.125 µg/mL (≈ 0.167 µM), the MIC (strain CDC86 (GCREF2013 035)) was 0.125 µg/mL (≈ 0.167 µM) and the MIC (strain CDC87 (GCREF2013 036)) was 0.125 µg/mL (≈ 0.167 µM). The MIC (strain CDC88 (GCREF2013 037), read-out: MIC) was 2 µg/mL (≈ 2.67 µM), the MIC (strain CDC89 (GCREF2013 038), read-out: MIC) was 2 µg/mL (≈ 2.67 µM) and the MIC (strain CDC90 (GCREF2013 039)) was 0.125 µg/mL (≈ 0.167 µM). The MIC (strain CDC91 (GCREF2013 040)) was 0.125 µg/mL (≈ 0.167 µM), the MIC (strain CDC92 (GCREF2013 041)) was 0.125 µg/mL (≈ 0.167 µM) and the MIC (strain CDC93 (GCREF2013 042)) was 0.125 µg/mL (≈ 0.167 µM). It also gave an MIC (strain CDC94 (GCREF2013 043), read-out: MIC) of 2 µg/mL (≈ 2.67 µM), an MIC (strain CDC95 (GCREF2013 045)) of 0.125 µg/mL (≈ 0.167 µM) and an MIC (strain CDC96 (GCREF2013 046)) of 0.125 µg/mL (≈ 0.167 µM). For the same molecule, the MIC (strain CDC97 (GCREF2013 047)) was 0.125 µg/mL (≈ 0.167 µM), the MIC (strain CDC98 (GCREF2013 048), read-out: MIC) was 2 µg/mL (≈ 2.67 µM) and the MIC (strain CDC99 (GCREF2013 012), read-out: MIC) was 4 µg/mL (≈ 5.34 µM). For the same molecule, the MIC (strain CDC100 (GCREF2013 015)) was 0.125 µg/mL (≈ 0.167 µM) and the MIC90 (96 clinical isolates, read-out: MIC90) was 2 µg/mL (≈ 2.67 µM).
